Assay results reported in patent US11014888B2, “Crystalline form of alkynyl pyridine prolyl hydroxylase inhibitor and method for preparing same” (JIANGSU HENGRUI MEDICINE CO., LTD., priority 2017, dated 2021).

Legend:
[1] = Chemical stability under different humidity conditions, impurity content by HPLC; format: physicochemical; conditions: for Total impurity content (%): HPLC; for Impurity content level / Change of impurity content under various conditions: conclusion from Table 8; for Change of impurity content under various conditions: humidity 0%, 75%, 92.5% (25° C.), up to 30 days
Experimental: The samples of crystal forms A, B and I were left to stand under different humidity conditions to test their chemical stability. The impurity content was determined by HPLC (HPLC detection conditions: ZORBAX SB-C18 4.6*150 mm 3.5 μm, mobile phase: TFA/methanol/water, detection wavelength: 223 nm).

[2] = XRPD comparison of crystal forms before and after DSC heating; format: physicochemical
Experimental: XRPD test was carried out on the samples of crystal forms A, B and I after the DSC test.

[3] = XRPD comparison of crystal forms before and after the DVS test; format: physicochemical; conditions: for Crystal form change before and after the DVS test (XRPD): 25° C., water, 50%-95%-0%-95%-50% RH; for Stability / sensitivity to humidity: conclusion from XRPD before and after DVS test
Experimental: XRPD test was carried out on the samples of crystal forms A, B and I after the DVS test, and the XRPD results of each crystal form before and after the DVS test were compared.
DVS instrument parameters:
Maximum step size: 360 minutes

[4] = Physical stability test (XRPD) of crystal forms under different placement conditions; format: physicochemical; conditions: for Physical stability, conclusion from Table 7: C, D, H changed after one week, A, B, I did not change after one month; for Physical stability (XRPD): 1 week
Experimental: Physical stability test was carried out on the samples of crystal forms A, B, C, D, H and I under different placement conditions. The placement conditions were:
1. 40° C., humidity 75%, open/sealed;
2. 25° C., humidity 60%, open; and […]

[5] = Chemical stability under different placement conditions; format: physicochemical; conditions: 40° C., humidity 75%, open/sealed, 25° C., humidity 60%, or 2-6° C.
[6] = XRPD after standing at 0% humidity for 10 days; format: physicochemical
Text: The samples of crystal forms A and B were left to stand under the condition of 0% humidity for 10 days, and subjected to XRPD to investigate the stability of the crystal form under the low humidity condition.

prolyl hydroxylase = conditions: as disclosed in WO2017059623; cited from earlier work
[7] = Humidity 92.5% (25° C.), 5 days
[8] = Humidity 92.5% (25° C.), 10 days
[9] = Humidity 92.5% (25° C.), 30 days

Row | Total impurity content (%) ([1]; Day 0) | Total impurity content (%) ([1]; Humidity 0% (25° C.), 5 days) | Total impurity content (%) ([1]; Humidity 0% (25° C.), 10 days) | Total impurity content (%) ([1]; Humidity 0% (25° C.), 30 days) | Total impurity content (%) ([1]; Humidity 75% (25° C.), 5 days) | Total impurity content (%) ([1]; Humidity 75% (25° C.), 10 days) | Total impurity content (%) ([1]; Humidity 75% (25° C.), 30 days) | Total impurity content (%) [1, 7] | Total impurity content (%) [1, 8] | Total impurity content (%) [1, 9] | Impurity content level [1] | Change of impurity content under various conditions [1] | Crystal form change before and after the DVS test (XRPD) [3] | Physical stability, conclusion from Table 7 [4] | SMILES | Physical stability (XRPD) ([4]; 40° C. open (humidity 75%)) | further results
1 | – | – | – | – | – | – | – | – | – | – | – | – | – | poor physical stability | O=C(O)CNC(=O)c1ncc(C#CCOc2ccc(Cl)cc2)cc1O [crystal form C, 2-(3-hydroxy-5-(3-p-chlorophenoxypropyn-1-yl))picolinamido acetic acid] | x (x means that the crystal form changed) | Physical stability (XRPD) ([4]; 4° C. sealed): x (x means that the crystal form changed); Physical stability (XRPD) ([4]; 25° C. open (humidity 60%)): x (x means that the crystal form changed); Physical stability (XRPD) ([4]; 40° C. sealed (humidity 75%)): x (x means that the crystal form changed)
2 | – | – | – | – | – | – | – | – | – | – | – | – | – | poor physical stability | O=C(O)CNC(=O)c1ncc(C#CCOc2ccc(Cl)cc2)cc1O [crystal form H, 2-(3-hydroxy-5-(3-p-chlorophenoxypropyn-1-yl))picolinamido acetic acid] | x (x means that the crystal form changed) | –
3 | 0.95% | 0.97% | 1.03% | 1.09% | 0.94% | 0.98% | 1.06% | 0.98% | 0.98% | 1.02% | low impurity content | substantially did not increase | did not change | good physical stability | O=C(O)CNC(=O)c1ncc(C#CCOc2ccc(Cl)cc2)cc1O [crystal form B, 2-(3-hydroxy-5-(3-p-chlorophenoxypropyn-1-yl))picolinamido acetic acid] | – | Crystal form change after DSC heating (XRPD) ([2]; after heating to 135° C.): did not change; Stability / sensitivity to humidity [3]: most stable to humidity; Chemical stability under different placement conditions [5]: excellent chemical stability; Crystal form change under low humidity (XRPD) [6]: did not change

The remaining lines, values behind:

Row | SMILES | Total impurity content (%) ([1]; Day 0) | Total impurity content (%) ([1]; Humidity 0% (25° C.), 5 days) | Total impurity content (%) ([1]; Humidity 0% (25° C.), 10 days) | Total impurity content (%) ([1]; Humidity 0% (25° C.), 30 days) | Total impurity content (%) ([1]; Humidity 75% (25° C.), 5 days) | Total impurity content (%) ([1]; Humidity 75% (25° C.), 10 days) | Total impurity content (%) ([1]; Humidity 75% (25° C.), 30 days) | Total impurity content (%) [1, 7] | Total impurity content (%) [1, 8] | Total impurity content (%) [1, 9] | Impurity content level [1] | Change of impurity content under various conditions [1] | Crystal form change before and after the DVS test (XRPD) [3] | Physical stability, conclusion from Table 7 [4] | Physical stability (XRPD) ([4]; 40° C. open (humidity 75%)) | further results
4 | O=C(O)CNC(=O)c1ncc(C#CCOc2ccc(Cl)cc2)cc1O [crystal form I, 2-(3-hydroxy-5-(3-p-chlorophenoxypropyn-1-yl))picolinamido acetic acid] | 1.56% | 1.57% | 1.58% | 2.06% | 1.72% | 1.78% | 1.88% | 1.90% | 2.24% | 2.22% | relatively high impurity content | changed significantly | changed | good physical stability | – | Crystal form change after DSC heating (XRPD) ([2]; after heating to 105° C.): changed; Stability / sensitivity to humidity [3]: most sensitive to humidity
5 | O=C(O)CNC(=O)c1ncc(C#CCOc2ccc(Cl)cc2)cc1O [crystal form D, 2-(3-hydroxy-5-(3-p-chlorophenoxypropyn-1-yl))picolinamido acetic acid] | – | – | – | – | – | – | – | – | – | – | – | – | – | poor physical stability | x (x means that the crystal form changed) | Physical stability (XRPD) ([4]; 4° C. sealed): x (x means that the crystal form changed); Physical stability (XRPD) ([4]; 25° C. open (humidity 60%)): x (x means that the crystal form changed); Physical stability (XRPD) ([4]; 40° C. sealed (humidity 75%)): x (x means that the crystal form changed)
6 | O=C(O)CNC(=O)c1ncc(C#CCOc2ccc(Cl)cc2)cc1O [crystal form A, 2-(3-hydroxy-5-(3-p-chlorophenoxypropyn-1-yl))picolinamido acetic acid] | 1.88% | 1.89% | 2.00% | 2.14% | 1.92% | 1.97% | 2.17% | 1.96% | 1.99% | 2.05% | relatively high impurity content | changed significantly | did not change, but the crystallinity thereof decreased | good physical stability | – | Crystal form change after DSC heating (XRPD) ([2]; after heating to 105° C.): changed; Crystal form change under low humidity (XRPD) [6]: changed
7 | O=C(O)CNC(=O)c1ncc(C#CCOc2ccc(Cl)cc2)cc1O [compound of formula (I), 2-(3-hydroxy-5-(3-p-chlorophenoxypropyn-1-yl))picolinamido acetic acid] | – | – | – | – | – | – | – | – | – | – | – | – | – | – | – | Inhibition effect on prolyl hydroxylase (prolyl hydroxylase): excellent inhibition effect
